The nature of data set [1]: Transdermal fluorescence measurements from a patient before and after injection of the agent (FIG. 15). In kind it is in vivo. The conditions noted are these: about 10 hours after injection, after peak concentration. How it is done:
FIG. 15 is a graph of fluorescence measurements obtained from a patient over a period of about 10 hours after injection of an exogenous fluorescence agent (MB-102) after a pre-injection period of about 3 hours. Referring to FIG. 15, the pre-injection/baseline period 1502 is characterized by a relatively low and stable fluorescence level, likely due the absence of […] fluorescent agent in the blood of the patient. […] Without being limited to any particular theory, it is thought the injected exogenous fluorescence agent is likely equilibrated across the extra-cellular space once the decay of the fluorescence is well-described by a […] (or a line on semi-log plot).

A short description of data set [2]: Absorption and emission spectra of the exogenous fluorescent agent (FIG. 3). In kind it is physicochemical. The text has this:
By way of illustrative example, FIG. 3 is a graph summarizing the absorption spectra for HbO2 and Hb, as well as the absorption and emission spectra of frequency spectra of MB-102, an exogenous fluorescent agent in one aspect. Emission spectra for a blue LED light source and a green LED light source are also shown superimposed over the other spectra of FIG. 3. In this aspect, the system 200 may include a blue LED as the first light source 218, and the excitatory wavelength for the system 200 may be the isosbestic wavelength of about 450 nm. […] However, at wavelengths above about 500 nm, the HbO2/Hb spectra are less steeply sloped, and a broader band light source including, but not limited to, an LED with a bandpass filter may suffice for use as a first light source 218.
In another aspect, the excitatory wave length may be selected to enhance the contrast in light absorbance between the exogenous fluorescent agent and the chromophores within the tissues of the patient 202. […] Without being limited to any particular theory, a higher proportion of light illuminating the tissue of the patient 202 at a wavelength of about 450 nm will be absorbed by the MB-102 relative to the HbO2 and Hb, thus enhancing the efficiency of absorption by the MB-102 and reducing the intensity of light at the excitatory wavelength needed to elicit a detectable fluorescence signal. […]

Data set [3] can be described thus: Transdermal fluorescence monitoring of renal elimination of the agent during perturbations (Example 1). In kind it is in vivo. The conditions noted are these: pig, time points later than 2 hours after agent injection, no baseline subtraction, FIG. 21B. The text has this: A system similar to the system 200 described herein above was used to monitor the fluorescence produced during the renal elimination of an exogenous fluorescent agent, MB-102, using the methods described herein above, in particular the diffuse reflectance data correction method.
FIG. 21A is a graph summarizing the changes in the magnitude of the raw fluorescence signal (Flr) just prior to injection of the MB-102 fluorescent agent into a pig and for about six hours post-injection. During the post-equilibration portion, corresponding to a time of about 13:45 in FIG. 21A, the pig was subjected to a series of perturbations selected to vary the optical properties of the pig's skin and/or underlying tissues: administration of blood pressure medications to induce vasodilation/vasorestriction 2102, application of pressure to compress the tissue 2104, lateral movement of the sensor head 2106, SpO2 decrease 2108, SpO2 decrease 2110, remove/replace sensor head 2112/2114, and skin cooling 2116.
FIG. 21B is a graph summarizing the corrected intrinsic fluorescence signal (IF) corrected as described herein above with no baseline subtraction.

Molecules are shown by their SMILES.

Turning to `Nc1nc(C(=O)N[C@H](CO)C(=O)O)c(N)nc1C(=O)N[C@H](CO)C(=O)O` [MB-102], the “time course of fluorescence after injection” value in data set [1] is reported as “relatively smooth exponential decrease”. In data set [2] (at the isosbestic wavelength of 452 nm), the “light absorption relative to HbO2 and Hb” value is on record as “more than three-fold higher”. The emission peak wavelength result in data set [2] (emission spectrum) was “about 550 nm”. For the same molecule, the “time course of corrected intrinsic fluorescence (IF) signal” value in data set [3] was “expected single-exponential decay of the signal”.

The values are drawn from patent US11950907B2, “Method for non-invasive monitoring of fluorescent tracer agent with diffuse reflecting medium with time-varying optical properties” (MediBeacon Inc., priority 2017, dated 2024).
